Source: patent publication US9579381B2 (priority 2012, dated 2017)

Tested on: H37Rv S315T (KatG mutant)
Assay type: cell-based, Mycobacterium tuberculosis

NNC(=O)c1ccncc1 [INH, Isoniazid]
dependence of activity on KatG: dependent upon KatG
